Test results taken from ChEMBL document CHEMBL1201862, “PubChem BioAssay data set” (2004).
Active and inactive are the calls of the source. For most assays here, no stated cut-off is given here; in the data, actives have a measured IC50 and inactives only a lower limit.

Tests used:
Type in all cases: functional
[1] = target: T1, Replicative DNA helicase DnaB (Mycobacterium tuberculosis, UniProt P9WMR3); experiment: DnaB intein splicing inhibitors, dose response, biochemical, cell-free fluorescence (AID 449749)
T1 sequence (P9WMR3 whole entry): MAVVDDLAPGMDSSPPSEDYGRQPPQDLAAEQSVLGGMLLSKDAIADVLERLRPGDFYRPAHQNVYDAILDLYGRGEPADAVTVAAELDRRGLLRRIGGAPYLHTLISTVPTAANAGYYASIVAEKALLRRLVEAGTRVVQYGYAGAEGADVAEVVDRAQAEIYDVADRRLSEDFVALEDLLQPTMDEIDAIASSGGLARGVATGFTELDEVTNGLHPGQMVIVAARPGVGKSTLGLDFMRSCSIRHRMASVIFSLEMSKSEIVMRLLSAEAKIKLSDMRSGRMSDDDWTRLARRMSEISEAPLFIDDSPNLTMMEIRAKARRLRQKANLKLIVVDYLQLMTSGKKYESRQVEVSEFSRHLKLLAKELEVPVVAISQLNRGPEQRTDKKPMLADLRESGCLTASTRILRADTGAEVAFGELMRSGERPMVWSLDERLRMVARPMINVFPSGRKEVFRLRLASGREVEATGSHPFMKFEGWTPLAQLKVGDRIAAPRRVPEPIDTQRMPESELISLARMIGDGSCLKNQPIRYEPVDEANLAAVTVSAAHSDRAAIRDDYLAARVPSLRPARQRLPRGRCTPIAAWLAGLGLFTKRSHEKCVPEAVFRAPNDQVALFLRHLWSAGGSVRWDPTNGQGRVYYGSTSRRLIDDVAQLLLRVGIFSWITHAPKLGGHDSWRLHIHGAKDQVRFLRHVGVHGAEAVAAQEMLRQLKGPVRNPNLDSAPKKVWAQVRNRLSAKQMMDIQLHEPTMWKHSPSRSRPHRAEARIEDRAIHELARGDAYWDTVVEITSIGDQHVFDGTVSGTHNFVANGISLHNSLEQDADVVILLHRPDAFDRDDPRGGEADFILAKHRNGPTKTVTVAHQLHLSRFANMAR

[2] = target: T2, Caspase-3 (Homo sapiens, UniProt P42574);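 further: Dose-response selectivity test against caspase-3 for candidate inhibitors of sentrin-specific proteases (SENPs)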
T2 sequence (P42574 whole entry): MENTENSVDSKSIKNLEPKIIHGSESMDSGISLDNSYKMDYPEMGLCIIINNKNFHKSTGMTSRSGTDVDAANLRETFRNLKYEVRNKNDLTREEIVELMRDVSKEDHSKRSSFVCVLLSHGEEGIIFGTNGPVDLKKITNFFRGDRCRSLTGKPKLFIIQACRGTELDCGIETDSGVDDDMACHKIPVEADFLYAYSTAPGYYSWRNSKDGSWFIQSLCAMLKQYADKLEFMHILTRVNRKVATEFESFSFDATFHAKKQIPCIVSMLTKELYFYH

[3] = target: T3, Sentrin-specific protease 8 (Homo sapiens, UniProt Q96LD8);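 further: luminescence read-out of SENP8 inhibition, dose-response confirmation following an ultra-high-throughput screen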
T3 sequence (Q96LD8 whole entry): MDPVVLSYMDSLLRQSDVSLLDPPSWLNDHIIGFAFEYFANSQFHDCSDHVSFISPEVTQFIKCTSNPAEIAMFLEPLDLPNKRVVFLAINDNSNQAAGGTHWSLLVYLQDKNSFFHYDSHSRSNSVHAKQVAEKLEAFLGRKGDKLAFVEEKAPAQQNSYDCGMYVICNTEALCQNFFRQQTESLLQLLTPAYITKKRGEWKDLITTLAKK

[4] = target: T4, Apoptotic protease-activating factor 1 (Homo sapiens, UniProt O14727)
T4 sequence (O14727 whole entry): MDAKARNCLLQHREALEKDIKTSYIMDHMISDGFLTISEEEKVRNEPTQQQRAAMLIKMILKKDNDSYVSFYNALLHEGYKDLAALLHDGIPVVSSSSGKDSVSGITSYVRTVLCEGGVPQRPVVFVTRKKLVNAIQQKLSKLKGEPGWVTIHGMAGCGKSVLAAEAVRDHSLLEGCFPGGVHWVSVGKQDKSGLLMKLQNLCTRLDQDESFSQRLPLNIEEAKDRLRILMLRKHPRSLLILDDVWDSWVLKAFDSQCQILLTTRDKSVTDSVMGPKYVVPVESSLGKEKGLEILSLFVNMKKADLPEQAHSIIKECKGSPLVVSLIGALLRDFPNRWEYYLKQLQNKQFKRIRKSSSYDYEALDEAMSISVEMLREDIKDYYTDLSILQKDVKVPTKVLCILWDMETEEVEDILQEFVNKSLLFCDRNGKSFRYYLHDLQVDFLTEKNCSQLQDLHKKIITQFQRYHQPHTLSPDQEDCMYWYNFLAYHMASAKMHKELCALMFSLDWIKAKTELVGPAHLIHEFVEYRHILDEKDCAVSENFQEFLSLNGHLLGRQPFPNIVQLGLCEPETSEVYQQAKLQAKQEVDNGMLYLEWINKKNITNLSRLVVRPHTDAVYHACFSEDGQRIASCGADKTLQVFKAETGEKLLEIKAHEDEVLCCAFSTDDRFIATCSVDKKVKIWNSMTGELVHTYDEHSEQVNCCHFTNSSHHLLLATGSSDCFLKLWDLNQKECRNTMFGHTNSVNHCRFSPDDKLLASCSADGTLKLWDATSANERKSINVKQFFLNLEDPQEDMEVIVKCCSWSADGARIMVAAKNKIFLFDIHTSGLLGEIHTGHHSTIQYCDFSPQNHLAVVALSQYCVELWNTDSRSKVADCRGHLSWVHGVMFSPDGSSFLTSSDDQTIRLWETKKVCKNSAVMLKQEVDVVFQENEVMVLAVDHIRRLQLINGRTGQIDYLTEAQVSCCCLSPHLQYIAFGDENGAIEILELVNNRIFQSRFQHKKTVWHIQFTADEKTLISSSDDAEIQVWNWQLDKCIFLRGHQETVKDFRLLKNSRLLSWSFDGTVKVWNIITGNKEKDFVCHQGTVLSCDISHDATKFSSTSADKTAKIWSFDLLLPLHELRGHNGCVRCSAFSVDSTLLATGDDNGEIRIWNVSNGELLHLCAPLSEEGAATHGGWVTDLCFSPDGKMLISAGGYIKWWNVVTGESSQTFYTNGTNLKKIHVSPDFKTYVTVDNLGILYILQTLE

SMILES | AC50 [1] | IC50 [2] | IC50 [3] | IC50 [4]
CC(=O)NC1C(=O)N(CCN2CCOCC2)c2ccc(F)cc21 (stereo not given) | 12.3 µM (active) | – | – | –
O=C1N=C(NS(=O)(=O)Cc2ccccc2)S/C1=C1\C(=O)Nc2ccccc21 | – | 67.2 µM (active) | 24.5 µM (active) | –
O=C1C=C(N2CCCCC2)c2ccccc2C1=O | – | – | – | 2.12 µM (active)
O=C(O)C1Nc2c(O)cc(Cl)c([N+](=O)[O-])c2C2C=CCC12 (stereo not given) | 12.8 µM (active) | – | – | –
Clc1ccc2nc(-c3ccc(Br)s3)cn2c1 | – | 11.2 µM (active) | 16.5 µM (active) | –
O=C(CCc1ccccc1)NNc1cc(N2CCCCC2)nc(N2CCCCC2)n1 | – | – | – | 3.62 µM (active)
Oc1ccc(N=Nc2c(O)ccc3ccccc23)cc1 | – | 49.7 µM (active) | 8.8 µM (active) | –
